According to US4677131:

Test: shake-flask (equal volumes, stirred); both phases assayed by HPLC
Details: 32 °C

CCCCCCCCCCN1CCN(C)C1=O
partition coefficient iso-octane / distilled water: 756 concentration ratio

CCCCCCCCCCCCN1CCCCCC1=O
partition coefficient iso-octane / distilled water: 2004 concentration ratio

CCCCCCCN1CCN(C)C1=O
partition coefficient iso-octane / distilled water: 24 concentration ratio

CCCCCCCCCCCCN1CCN(C)C1=O
partition coefficient iso-octane / distilled water: 7350 concentration ratio
